# Measurements as given in patent EP0076089A2, “Azabicycloalkane derivatives, process for their preparation, and a pharmaceutical composition containing them” (BEECHAM GROUP PLC, priority 1981, dated 1983).
# Where a name gives a salt, the structure may show the parent alone.
# System: spontaneous climbing behaviour of mice
# Experiment: Spontaneous climbing behaviour of mice (method of Martres et al.)
# Assay type: in vivo
# Conditions: 0.2mg/kg subcutaneous, climbs counted over a 10 minute period commencing 3 minutes after administration, percentage change from control group
# Method: It is believed that this inhibitory effect is mediated by stimulation of presynaptic dopaminergic autoreceptors, i.e. receptors whose stimulation results in inhibition of dopamine synthesis and electrical activity of dopamine neurones. Spontaneous climbing behaviour was assessed by the method of M.P. Martres et al., Brain Research, 1977, 136, 319. This involves the monitoring of the frequency of climbing behaviour of mice in inverted food hoppers over a 10 minute period commencing 3 minutes after subcutaneous administration of compound. A climb is defined as the mouse having all four feet off the ground. Experiments are carried out with a minimum of 5 groups of 10 mice, one group acting as control.
Compound,"% Inhibition of Spontaneous Climbing at 0.2mg/kg (hydrobromide, 0.2 mg/kg) [%]",% Inhibition of Spontaneous Climbing at 0.2mg/kg [%]
"Oc1cccc(C2CCC3CCC2N3Cc2ccccc2)c1 (racemic) [Compound 13, (±)-(2-Exo)-8-Benzyl-2-(3'-hydroxyphenyl)-8-azabicyclo(3.2.1)octane hydrobromide]",24,–
"Oc1cccc(C2CCC3CCC2N3Cc2ccccc2)c1 (racemic) [Compound 14, (±)-(2-endo)-8-Benzyl-2-(3'-hydroxyphenyl)-8-azabicyclo(3.2.1)octane hydrobromide]",38,–
"CCCN1C2CCC(c3cccc(O)c3)C1CC2 (racemic) [Compound 16, 2-endo-8-n-propyl-2-(3'-hydroxyphenyl)-8-azabicyclo[3.2.7]octane]",–,49
"Oc1cccc(C2CCC3CCC2N3CCc2ccccc2)c1 (racemic) [Compound 20, 2-endo-8-phenethyl-2-(3'-hydroxyphenyl)-8-azabicyclo[3.2.1] octane]",–,12
